Reference: patent US9963701B2, “Pharmaceutical composition for treatment of radiation- or drug-resistant cancer comprising HRP-3 inhibitor” (KOREA INSTITUTE OF RADIOLOGICAL & MEDICAL SCIENCES, priority 2013, dated 2018)
Entries after “also recorded” stand apart in the source; their conditions may differ.

Tests used:
Type in all cases: cell-based, human
[1] = system: H460 cells; assay: Apoptosis by FACS analysis in H460 cells; details: 0.1 μg/ml doxorubicin or 5 ng/ml vinblastine, 48 hours
Experimental: (§1) Human NSCLC cell lines (A549 and H460) were purchased from the ATCC and cultured in RPMI-1640 medium containing 10% FBS, 50 μg/ml streptomycin, and 50 units/ml penicillin. The cultured cells were irradiated using a ^137Cs-ray source (Atomic Energy of Canada, Ltd., Canada) at a dose rate of 3.81 Gy/min and were treated with 0.1 μg/ml doxorubicin or 5 ng/ml vinblastine. The treated cells were treated with trypsin, washed with PBS, stained with annexin V and propidium iodide, and then analyzed by FACS using a flow cytometer to measure apoptosis (FIG. 1A).
(§2) Specifically, while each type of H460 cells and H1299 cells were inoculated into a culture dish at a density of 3.5×10^5 cells/cm^2 and cultured in RPMI-1640 medium, each type of cell was radiated with 0 and 10 Gy of ^137Cs-rays, or the cell culture was treated with 0 and 0.1 μg/ml of doxorubicin or 0 and 5 ng/ml of vinblastine (Sigma, St. Louis, Mo., USA) and cultured. Next, the death rate of the cells was determined by FACS analysis according to a known method (M. J. Kim, et al., Cancer Lett, 339:15-24, 2013) (FIG. 7A).

[2] = system: H1299 cells; assay: Apoptosis by FACS analysis in H1299 cells; details: 0.1 μg/ml doxorubicin or 5 ng/ml vinblastine, 48 hours
Experimental: as §2
The inhibition of HRP-3 expression in H1299 cells was performed according to the method in Example 6-2, and the H1299 cells, which were inhibited of HRP-3 expression, were subjected to anticancer treatment (radiation, doxorubicin treatment or vinblastine treatment), and their apoptotic rate was measured (FIG. 7D).
The morphological change and apoptotic rate of H1299 cells were measured in the same manner as described in Example 6-4, except that radiation alone was performed as anticancer treatment (FIG. 8A).

[3] = system: HRP-3; assay: HRP-3 protein level after radiation or drug treatment in H1299 cells (Western blot); details: 0.1 μg/ml doxorubicin or 5 ng/ml vinblastine
Experimental: While H1299 cells were cultured in RPMI-1640 medium, the cells were radiated with 10 Gy of ^137Cs-rays, or the cell culture was treated with 0.1 μg/ml doxorubicin or 5 ng/ml vinblastine, and the change in the expression level of HRP-3 as a function of time for a culture time of 48 hours was analyzed by Western blotting or immunofluorescence staining (FIGS. 6D and 6E).

[4] = system: A549 cells; assay: Apoptosis by FACS analysis (annexin V / propidium iodide) in A549 cells; details: 0.1 μg/ml doxorubicin or 5 ng/ml vinblastine, 48 hours
Experimental: as §1
In addition, A549 cells were transfected with 100 nM scrambled siRNA or HRP-3 siRNA and cultured for 2 days. Then, changes in the morphology of the cells were observed under an optical microscope, and the death rate of the cells was measured by FACS analysis (FIG. 2D). Also, the levels of two apoptotic markers (cleaved PARP and active caspase-3) were determined by Western blotting (FIG. 2E).
In order to examine this correlation, the effect of HRP-3 in the A549 cells treated with radiation or the drug was analyzed. Specifically, A549 cells were transfected with 100 nM scrambled siRNA or HRP-3 siRNA, and then treated with 10 Gy radiation, 0.1 μg/ml doxorubicin or 5 ng/ml vinblastine and cultured. The death rate of the cultured cells was determined by FACS analysis (FIG. 3B).

[5] = system: p53, pp53, PUMA, cleaved PARP; assay: Western blot of cleaved PARP, p53, pp53, PUMA in A549 cells; details: siHRP-3-transfected A549 cells, 1 mM NAC
From the text: Additionally, the effect of p53 on the induction of apoptosis was examined. […] Next, the levels of HRP-3, cleaved PARP, p53, pp53, and PUMA proteins produced in the cells were detected by Western blot analysis (FIG. 5D).

[6] = system: ROS; assay: ROS production by DCF-DA (confocal, FACS) in H1299 cells; details: 3 mM NAC
Experimental: According to a known method, the thus obtained H1299 cells were treated with 10 nM DCF-DA (2′,7′-dichlorofluorescein diacetate) for 20 minutes, and the produced ROS was detected (M. J. Kim, et al., Cancer Lett, 339:15-24, 2013) (FIG. 8D). The detection of ROS was performed by observing the DCF-DA-stained cells with a laser scanning confocal microscope and analyzing the DCF-DA-stained cells by FACS analysis to determine the production of ROS.

[7] = system: IκB, c-Myc, Noxa; assay: Western blot of IκB, c-Myc, Noxa in H1299 cells; details: siHRP-3-treated H1299 cells
Experimental: Specifically, a cell lysate obtained by lysing the scrambled siRNA- or siHRP-3-treated H1299 cells cultured in Example 6-2 was analyzed by Western blot using anti-HRP-3 antibodies, anti-IκB antibodies (Santa Cruz Biotechnology Inc., Santa Cruz, Calif., USA), anti-c-Myc antibodies (Calbiochem, San Diego, Calif., USA) and anti-Noxa antibodies (Calbiochem, San Diego, Calif., USA). Herein, β-actin was used as a loading control (FIG. 9A; left). As control cells, H1299 cells were treated with scrambled siRNA alone.
H1299 cells subjected to the inhibition of HRP-3 expression and radiation were obtained in the same manner as described in Example 6-4, except that radiation alone, was performed as anticancer treatment. The thus obtained H1299 cells were lysed to obtain a cell lysate. The expression levels of IκB, c-Myc and Noxa were measured in the same manner as described in Example 8-1, except that the thus obtained lysate was used, and NF-κB activity was also measured in the same manner as described in Example 8-1 (FIG. 9B). As control cells, H1299 cells treated with scrambled siRNA alone were used.
The thus obtained cells were lysed to obtain a cell lysate. The expression levels of IκB, c-Myc and Noxa were measured by Western blot analysis in the same manner as described in Example 8-1, except that the cell lysate was used. Also, NF-κB activity was measured by a reporter gene assay (FIG. 9C). […]

[8] = system: ROS; assay: ROS production by FACS analysis using DCF-DA in A549 cells; details: 1 mM NAC, 48 hours
Experimental: Thus, it was predicted that HRP-3 would influence ROS production, and the following experiment was performed in order to confirm this prediction. […] The level of ROS produced in the cells was determined by FACS analysis using 10 nM DCF-DA (FIG. 4C).
Further, A549 cells were transfected with 100 nM scrambled siRNA or HRP-3 siRNA without or with exposure to 10 Gy radiation and cultured, and the level of ROS produced in the cells was assessed by FACS analysis using 10 nM DCF-DA (FIG. 4D).

[9] = system: NF-κB; assay: NF-κB reporter gene assay (pNF-κB-luc) in H1299 cells; details: siHRP-3-treated H1299 cells, 2 μM BAY 11-7082, 48 hours
Experimental: In addition, the activity of NF-κB in the scrambled siRNA- or siHRP-3-treated H1299 cells was measured by a reporter gene assay using Dual-Reporter™. Specifically, H1299 cells were transfected with 0.5 μg plasmid DNA (pNF-κB-luc; Stratagene, Cambridge, UK) in Dual-Reporter™, and then the luciferase activity in the cells was measured using a luminometer, and the activity of NF-κB was measured at various protein concentrations (FIG. 9A; right).

Row | Structure (SMILES) | apoptotic rate [1] | apoptotic rate [2] | time after treatment at which level of HRP-3 peaked [3] | resistance of A549 cells compared to H460 cells (apoptosis) [4] | also measured
1 | CC[C@]1(O)C[C@@H]2CN(CCc3c([nH]c4ccccc34)[C@@](C(=O)OC)(c3cc4c(cc3OC)N(C)[C@H]3[C@@](O)(C(=O)OC)[C@H](OC(C)=O)[C@]5(CC)C=CCN6CC[C@]43[C@@H]65)C2)C1 [vinblastine] | about 43% | about 26% | 12 h | higher levels of resistance | –
2 | COc1cccc2c1C(=O)c1c(O)c3c(c(O)c1C2=O)C[C@@](O)(C(=O)CO)C[C@@H]3O[C@H]1C[C@H](N)[C@H](O)[C@H](C)O1 [doxorubicin] | about 39% | about 23% | 12 h | higher levels of resistance | –
3 | CC(=O)N[C@@H](CS)C(=O)O [NAC, N-acetyl cysteine] | – | – | – | – | induction of cleaved PARP by HRP-3 deletion [5]: significantly decreased; p53 and PUMA levels [5]: dramatically decreased; ROS production after inhibition of HRP-3 expression and radiation [6]: decreased to that of control cells; IκB, c-Myc and Noxa expression changes due to inhibition of HRP-3 expression ([7]; 3 mM NAC, 48 hours): levels similar to the control cells; effect on ROS generation induced by inhibition of HRP-3 expression [8]: reduced; also recorded: inhibited
4 | Cc1ccc(S(=O)(=O)/C=C/C#N)cc1 [BAY 11-7082] | – | – | – | – | IκB, c-Myc and Noxa expression changes due to inhibition of HRP-3 expression ([7]; 2 μM BAY 11-7082, 48 hours): levels similar to the control cells; increase in NF-κB activity due to inhibition of HRP-3 expression [9]: levels similar to the control cells
